Assays:
[1] = test system: children with moderate to severe ADHD; experiment: Example 1: 4-week placebo-controlled study of modafinil in children with ADHD; assay type: in vivo, human; conditions: for ADHD symptoms, primary outcome measure (teacher rated ADHD Rating Scale-IV): vs placebo
Description: A group of 248 children (average age: 9 years, average weight: 35.5 kilograms) were studied to determine the effect of modafinil on ADHD.
After a 1 week washout period, children with moderate to severe ADHD received 4 weeks of treatment with placebo or modafinil in split morning/midday dosages of 100/200 mg, 200/100 mg, a single 300 mg dose, and 200/200 mg (400 mg total). Randomization called for equal distribution of the children by weight, except for the 200/200 mg dose group, which contained only children having a weight greater than or equal to 30 kg. The primary efficacy measure was the teacher rated ADHD Rating Scale-IV.

ADHD patients = experiment: Example 2: 2-week fixed-dose study of 340 mg and 425 mg in children with ADHD; assay type: in vivo, human; conditions: 340 mg (<30 kg) or 425 mg (>=30 kg) single dose per day, 2 weeks, baseline score 46.3
Description: Safety and efficacy of the fixed doses of 340-mg and 425-mg were evaluated following a 2-week dosing period (1-week of titration and 1-week at steady state). The 340-mg dose was administered to children weighing <30 kg, and the 425-mg dose was administered to children weighing ≧30 kg.
The 24 children enrolled in this study were predominately male (17M:7F) and predominately white (13W:9B:2Other). The average age (9.0 yrs), weight (32.9 kg) and height (133.7 cm) were similar to those seen in previous ADHD trials in children. The children <30 and ≧30 kg were approximately equaled divided. The average Attention Deficit Hyperactivity Disorder Rating Scale (ADHD-RS) total score at baseline was 46.3.

[2] = human blood plasma concentration curve of modafinil; assay type: in vivo
Description: FIG. 1 represents a human blood plasma concentration curve of modafinil after an initial dose of 100 mg of modafinil followed 4 hours later by a 200 mg dose of modafinil.
FIG. 2 represents a human blood plasma concentration curve of modafinil after an initial dose of 200 mg of modafinil followed 4 hours later by a 100 mg dose of modafinil.
FIG. 3 represents a human blood plasma concentration curve of modafinil after a single dose of 300 mg of modafinil.
FIG. 4 represents a human blood plasma concentration curve of modafinil after a single dose of 100 mg of modafinil.

Structure (SMILES): NC(=O)C[S+]([O-])C(c1ccccc1)c1ccccc1 (centres unmarked) [modafinil, 2-[(diphenylmethyl)sulfinyl]acetamide]
- adverse event profile ([1]; 400 mg of modafinil (200/200 mg) vs the other doses): higher adverse event profile than the other doses
- safety and tolerability ([1]; children, 4 weeks of treatment, 300 to 400 mg total daily): safe and generally well tolerated
- ADHD symptoms, primary outcome measure (teacher rated ADHD Rating Scale-IV) ([1]; children, single 300 mg once daily dose, 4 weeks of treatment): significantly improved ADHD symptoms
- ADHD symptoms, primary outcome measure (teacher rated ADHD Rating Scale-IV) ([1]; children, split morning/midday dose 200/100 mg, 4 weeks of treatment): significantly improved ADHD symptoms
- improvement of ADHD-RS total score from baseline (ADHD patients): ~70%
- blood concentrations of modafinil, amount less than predicted ([2]; single dose of 300 mg vs extrapolation of 100 mg unit dose data, FIG. 3): 20-30%
- time post administration at which the blood level of modafinil begins to decrease ([2]; single dose of 300 mg, FIG. 3): about 2 hours
- time post administration at which the blood plasma concentration of modafinil begins to decrease ([2]; split dose 100 mg then 200 mg or 200 mg then 100 mg 4 hours later, FIGS. 1 and 2): about two
